Test results from patent publication US7041681B2, “Compounds as opioid receptor modulators” (Janssen Pharmaceutica N.V., priority 2002, dated 2006).

Columns and labels:
mu opioid receptor = biological target: T1, mu opioid receptor (Rattus norvegicus, UniProt P33535); assay: Rat Brain mu Opioid Receptor Binding Assay; settings: rat forebrain membranes, ~0.8 nM [3H]DAMGO, 25° C., 2.5 h; read-out: μ-opioid binding (Ki)
T1 construct: from tissue; host or cells: rat forebrain homogenate (Wistar rat)
Description: (§1) Male, Wistar rats (150–250 g, VAF, Charles River, Kingston, N.Y.) are killed by cervical dislocation, and their brains removed and placed immediately in ice cold Tris HCl buffer (50 mM, pH 7.4). The forebrains are separated from the remainder of the brain by a coronal transection, beginning dorsally at the colliculi and passing ventrally through the midbrain-pontine junction. After dissection, the forebrains are homogenized in Tris buffer in a Teflon®-glass homogenizer. The homogenize is diluted to a concentration of 1 g of forebrain tissue per 80 mL Tris and centrifuged at 39,000×g for 10 min. The pellet is resuspended in the same volume of Tris buffer containing 5 mM MgCl2 with several brief pulses from a Polytron homogenizer. This particulate preparation is used for the mu-opioid binding assays. Following incubation with the mu selective peptide ligand ˜0.8 nM [^3H]DAMGO at 25° C. for 2.5 h in a 96-well plate with total 1 ml, the plate contents are filtered through Wallac filtermat B sheets on a Tomtec 96-well harvester. The filters are rinsed three times with 2 mL of 10 mM HEPES (pH7.4), and dried in a microwave oven 1:45 min twice. To each sample area 2×40 μl of Betaplate Scint scintillation fluid (LKB) is added and analyzed on a LKB (Wallac) 1205 BetaPlate liquid scintillation counter.
(§2) The data are used to calculate either the % inhibition compared to control binding (when only a single concentration of test compound is evaluated) or a Ki value (when a range of concentrations is tested). % inhibition is calculated as: [(total dpm-test compound dpm dpm)/(total dpm-nonspecific dpm)]*100. Kd and Ki values were calculated using GraphPad PRISM data analysis program.

delta opioid receptor = biological target: T2, delta opioid receptor (Rattus norvegicus, UniProt P33533); assay: Rat Brain Delta Opioid Receptor Binding Assay; settings: rat forebrain membranes, ~4 nM [3H]DPDPE, 25° C., 2.5 h; read-out: δ-opioid binding (Ki)
T2 construct: from tissue; host or cells: rat forebrain homogenate (Wistar rat)
Description: as §1, with “delta opioid” for “mu-opioid”, “delta” for “mu”, “˜4” for “˜0.8”, “[^3H]DPDPE” for “[^3H]DAMGO”, “total volume of” for “total”
as §2

T1 sequence (P33535 whole entry): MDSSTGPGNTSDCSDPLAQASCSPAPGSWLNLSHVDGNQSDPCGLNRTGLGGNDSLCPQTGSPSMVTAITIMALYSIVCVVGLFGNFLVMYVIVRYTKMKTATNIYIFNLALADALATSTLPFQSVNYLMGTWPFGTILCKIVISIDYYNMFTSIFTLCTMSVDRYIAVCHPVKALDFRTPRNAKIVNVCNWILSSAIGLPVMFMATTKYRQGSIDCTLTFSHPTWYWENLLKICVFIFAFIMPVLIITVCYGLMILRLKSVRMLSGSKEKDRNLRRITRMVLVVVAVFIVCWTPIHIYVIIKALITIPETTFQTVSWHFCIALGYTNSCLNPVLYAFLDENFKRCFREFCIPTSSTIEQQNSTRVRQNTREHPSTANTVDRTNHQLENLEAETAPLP
T2 sequence (P33533 whole entry): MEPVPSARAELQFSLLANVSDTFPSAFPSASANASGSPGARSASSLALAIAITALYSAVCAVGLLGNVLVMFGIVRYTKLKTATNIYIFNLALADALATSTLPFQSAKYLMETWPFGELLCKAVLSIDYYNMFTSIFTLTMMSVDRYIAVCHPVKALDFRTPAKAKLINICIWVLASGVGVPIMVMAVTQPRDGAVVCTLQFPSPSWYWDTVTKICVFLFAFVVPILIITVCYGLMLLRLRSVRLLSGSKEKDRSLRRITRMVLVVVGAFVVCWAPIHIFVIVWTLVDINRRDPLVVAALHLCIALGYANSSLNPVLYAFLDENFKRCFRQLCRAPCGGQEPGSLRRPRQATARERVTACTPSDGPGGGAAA

CN[C@@H](Cc1c(C)cc(O)cc1C)C(=O)N1Cc2ccccc2C[C@H]1c1nc(-c2ccccc2)c[nH]1 [Cmpd 127]
Ki (mu opioid receptor): 7.1 nM
Ki (delta opioid receptor): 0.4 nM

CN[C@@H](Cc1ccc(OC(=O)C(C)(C)C)cc1)C(=O)N1Cc2ccccc2C[C@H]1c1nc(-c2ccccc2)c[nH]1 [Cmpd 128]
Ki (mu opioid receptor): 213 nM
Ki (delta opioid receptor): 5.2 nM

N[C@@H](Cc1ccc(O)c([N+](=O)[O-])c1)C(=O)N1Cc2ccccc2C[C@H]1c1nc(-c2ccccc2)c[nH]1 [Cmpd 129]
Ki (mu opioid receptor): 25700 nM
Ki (delta opioid receptor): 50000 nM

Cc1cc(O)cc(C)c1CC(N)C(=O)N1Cc2ccccc2CC1c1nc(-c2ccccc2)c[nH]1 (stereo not shown) [Cmpd 131]
Ki (mu opioid receptor): 0.3 nM
Ki (delta opioid receptor): 0.09 nM

Cc1cc(O)cc(C)c1C[C@H](N)C(=O)N1Cc2ccccc2C[C@H]1c1nc(-c2ccccc2)c(Br)[nH]1 [Cmpd 132]
Ki (mu opioid receptor): 0.17 nM
Ki (delta opioid receptor): 0.1 nM

Cc1cc(O)cc(C)c1C[C@H](N)C(=O)N1Cc2ccccc2C[C@H]1c1nc(-c2ccccc2)c(Cl)[nH]1 [Cmpd 133]
Ki (mu opioid receptor): 0.18 nM
Ki (delta opioid receptor): 0.12 nM

O=C([C@H](Cc1ccc(O)cc1)NCc1ccccc1)N1Cc2ccccc2C[C@@H]1c1nc(-c2ccccc2)c[nH]1 [Cmpd 134]
Ki (mu opioid receptor): 329 nM
Ki (delta opioid receptor): 10000 nM

O=C(C(Cc1ccc(O)cc1)NCc1ccccc1)N1Cc2ccccc2CC1c1nc(-c2ccccc2)c[nH]1 (stereo not shown) [Cmpd 135]
Ki (mu opioid receptor): 10000 nM
Ki (delta opioid receptor): 185 nM

CCN[C@@H](Cc1ccc(O)cc1)C(=O)N1Cc2ccccc2C[C@@H]1c1nc(-c2ccccc2)c[nH]1 [Cmpd 136]
Ki (mu opioid receptor): 229 nM
Ki (delta opioid receptor): 116 nM

CCN[C@@H](Cc1ccc(O)cc1)C(=O)N1Cc2ccccc2C[C@H]1c1nc(-c2ccccc2)c[nH]1 [Cmpd 137]
Ki (mu opioid receptor): 368 nM
Ki (delta opioid receptor): 3.89 nM

CC(C)NC(Cc1ccc(O)cc1)C(=O)N1Cc2ccccc2CC1c1nc(-c2ccccc2)c[nH]1 (stereo not shown) [Cmpd 138]
Ki (mu opioid receptor): 10000 nM
Ki (delta opioid receptor): 397 nM

CC(=O)Nc1ccc(C[C@H](N)C(=O)N2Cc3ccccc3C[C@H]2c2nc(-c3ccccc3)c(C)[nH]2)cc1 [Cmpd 141]
Ki (mu opioid receptor): 207 nM
Ki (delta opioid receptor): 34 nM

Cc1[nH]c([C@@H]2Cc3ccccc3CN2C(=O)[C@@H](N)Cc2ccc(N)cc2)nc1-c1ccccc1 [Cmpd 142]
Ki (mu opioid receptor): 857 nM
Ki (delta opioid receptor): 93 nM

Cc1[nH]c([C@@H]2Cc3ccccc3CN2C(=O)[C@@H](N)Cc2ccc(F)cc2)nc1-c1ccccc1 [Cmpd 143]
Ki (mu opioid receptor): 12800 nM
Ki (delta opioid receptor): 687 nM

N[C@@H](Cc1ccc(Cl)cc1)C(=O)N1Cc2ccccc2C[C@H]1c1nc(-c2ccccc2)c[nH]1 [Cmpd 144]
Ki (mu opioid receptor): 5260 nM
Ki (delta opioid receptor): 1130 nM

CNC(Cc1ccc(O)cc1)C(=O)N1Cc2ccccc2CC1c1nc(-c2ccccc2)c[nH]1 (stereo not shown) [Cmpd 145]
Ki (mu opioid receptor): 59.1 nM
Ki (delta opioid receptor): 1.18 nM

CNC(Cc1c(C)cc(OC)cc1C)C(=O)N1Cc2ccccc2CC1c1nc(-c2ccccc2)c[nH]1 (stereo not shown) [Cmpd 146]
Ki (mu opioid receptor): 817 nM
Ki (delta opioid receptor): 668 nM

COc1cc(C)c(CC(N)C(=O)N2Cc3ccccc3CC2c2nc(-c3ccccc3)c[nH]2)c(C)c1 (stereo not shown) [Cmpd 147]
Ki (mu opioid receptor): 150 nM
Ki (delta opioid receptor): 43 nM

Cc1cc(O)cc(C)c1C[C@H](N)C(=O)N1Cc2ccccc2C[C@H]1c1nc(-c2ccccc2)c(C)[nH]1 [Cmpd 149]
Ki (mu opioid receptor): 3 nM
Ki (delta opioid receptor): 0.8 nM

COc1ccc(CC(N)C(=O)N2Cc3ccccc3CC2c2nc(-c3ccccc3)c(C)[nH]2)cc1 (stereo not shown) [Cmpd 154]
Ki (mu opioid receptor): 10000 nM
Ki (delta opioid receptor): 10000 nM

CNC(Cc1ccc(O)cc1)C(=O)N1Cc2ccccc2CC1c1nc(-c2ccccc2)c(C)[nH]1 (stereo not shown) [Cmpd 155]
Ki (mu opioid receptor): 23.2 nM
Ki (delta opioid receptor): 0.44 nM

COc1ccc(C[C@H](N)C(=O)N2Cc3ccccc3C[C@H]2c2nc(-c3ccccc3)c(C)[nH]2)cc1 [Cmpd 156]
Ki (mu opioid receptor): 179 nM
Ki (delta opioid receptor): 28 nM

CN[C@@H](Cc1ccc(O)cc1)C(=O)N1Cc2ccccc2C[C@H]1c1nc(-c2ccccc2)c(C)[nH]1 [Cmpd 157]
Ki (mu opioid receptor): 30 nM
Ki (delta opioid receptor): 0.57 nM

Cc1cc(O)cc(C)c1C[C@H](N)C(=O)N1CCCC[C@@H]1c1nc(-c2ccccc2)c[nH]1 [Cmpd 158]
Ki (mu opioid receptor): 0.15 nM
Ki (delta opioid receptor): 5.43 nM

N#Cc1ccc(CC(N)C(=O)N2Cc3ccccc3CC2c2nc(-c3ccccc3)c[nH]2)cc1 (stereo not shown) [Cmpd 160]
Ki (mu opioid receptor): 1340 nM
Ki (delta opioid receptor): 752 nM

N[C@@H](Cc1cccc(O)c1)C(=O)N1Cc2ccccc2C[C@H]1c1nc(-c2ccccc2)c[nH]1 [Cmpd 161]
Ki (mu opioid receptor): 480 nM
Ki (delta opioid receptor): 133 nM
